From article PMC7822874, “Chemoprotective antimalarials identified through quantitative high-throughput screening of Plasmodium blood and liver stage parasites” (Scientific Reports, 2021)
Like-named read-outs stand apart in the source and are kept apart here.

Columns and labels:
[1] = tested on: P. berghei-ANKA-GFP-LucCON liver stage parasites in HepG2-A16-CD81EGFP cells; test: P. berghei liver stage Pb-Luc assay, Method 1 (UCSD, 1536-well); assay type: cell-based, Plasmodium berghei; details: P. berghei liver stage, averaged response (percent); for Average P. berghei 1 µM response (%): the header list (r8) defines it as the 1 µM dose
in vitro = details: human, hepg2-a16-cd81egfp cells
HepG2-A16-CD81EGFP cells = details: averaged response (percent)
[2] = tested on: P. falciparum Dd2 (clone B2) asexual blood stage parasites; test: P. falciparum Dd2 asexual blood stage SYBR Green-I 72 h proliferation assay (qHTS); assay type: cell-based, Plasmodium falciparum; details: averaged P. falciparum asexual blood stage potency, log10 of AC50 in M
[3] = HepG2, the header list (r10) describes it as the 1 µM dose

| SMILES | Average P. berghei 3 µM response( %) [1] [%] | Average P. berghei 1 µM response (%) [1] [%] | viability at 3 µM (in vitro; % viability) [%] | Average HepG2 3 µM response( %) (HepG2-A16-CD81EGFP cells; HepG2, 3 µM dose) [%] | Average HepG2 3 µM response( %) (HepG2-A16-CD81EGFP cells; [3]) [%] | Pf ABS Log AC50 (M) [2] [M] | viability at 3 µM (in vitro) [%] |
| --- | --- | --- | --- | --- | --- | --- | --- |
| Cc1nn(-c2ccccc2)c(C)c1/C=N/Nc1nc2ccccc2[nH]1 [MLS000332160] | 43 | 83 | 87.3 | 87 | 92 | -6.012 |  |
| O=C1C(Nc2ccccc2)=C/C(=N\S(=O)(=O)c2cccs2)c2ccccc21 [MLS000374486] | 34 | 65 | 86 | 86 | 101 | -6.462 |  |
| COc1ccc(-[n+]2c(-c3ccc(Br)cc3)cn3c2CCc2ccccc2-3)cc1.[Br-] [MLS000391920] | 11 | 57 | 65.4 | 65 | 95 | -5.612 |  |
| NS(=O)(=O)c1ccc(N/N=C/c2cn(-c3ccccc3)nc2-c2cccs2)cc1 [MLS000393371] | 24 | 69 | 94.1 | 94 | 91 | -6.762 |  |
| Cc1cccc(-c2cc3nc(C)c(C)c(NCCCn4ccnc4)n3n2)c1 [MLS000529525] | 119 | 131 | 87.2 | 87 | 97 | -5.512 |  |
| Cc1ccc(NC2=C(N3CCCCC3)C(=O)c3ccccc3C2=O)cc1 [MLS000532222] | 14 | 71 | 76.9 | 77 | 99 | -6.600 |  |
| CCN(CC)CCN1C(=O)c2ccccc2NC1c1ccc(N(C)C)cc1 (stereo not drawn) [MLS000554078] | 84 | 102 | 95.7 | 96 | 103 | -5.612 |  |
| CCCCc1c(C)c(C#N)c2nc3ccccc3n2c1Nc1c(C)n(C)n(-c2ccccc2)c1=O [MLS000555448] | 121 | 128 | 90.2 | 90 | 93 | -5.662 |  |
| Cc1cc(O)c(CN2CCN(c3ccccc3)CC2)cc1C [MLS000569270] | 97 | 88 |  | 107 | 102 | -5.650 | 107 |
| COc1ccc(-c2c[n+](-c3ccccc3)c3n2CCS3)cc1 [MLS000587970] | 31 | 92 | 88.3 | 88 | 97 | -5.712 |  |
| Cc1cc(Nc2nc3ccccc3nc2Cl)n(-c2ccccc2C)n1 [MLS000595322] | 93 | 114 | 98.3 | 98 | 93 | -6.062 |  |
| COc1ccc(Nc2cc(C)c3ccc(O)cc3n2)cc1 [MLS000674789] | 118 | 103 | 96.2 | 96 | 88 | -6.187 |  |
| Cc1cc(C)n(-c2nnc(N3CCN(c4ccccc4)CC3)nn2)n1 [MLS000695202] | 84 | 102 | 93.9 | 94 | 97 | -6.012 |  |
| CCN(CC)Cc1cc2[nH]c3c4ccc(Cl)cc4ncc3c2cc1OC [MLS000757007] | 134 | 108 | 101 | 101 | 105 | -6.700 |  |
| Cc1ccc(C)c(-n2c(-c3ccc(Br)cc3)csc2=NC(=O)c2ccccc2F)c1 [MLS000766129] | 44 | 91 | 89.1 | 89 | 97 | -5.187 |  |
| O=C(Nc1ccc(Nc2ccncc2)cc1)c1ccc(Nc2ccnc3ccc([N+](=O)[O-])cc23)cc1 [MLS000766132] | 96 | 114 | 90.3 | 90 | 92 | -6.337 |  |
| Cn1nc(C(F)(F)F)c(-c2ccc(F)cc2)c1NC(=O)Nc1ccc(F)cc1 [MLS000830769] | 90 | 148 | 99 | 99 | 95 | -5.962 |  |
| NC1=NC[C@@H](Cc2ccc(O)cc2)N1CCCCC1CCCCC1 [MLS000888822] | 40 | 86 | 97.6 | 98 | 113 | -5.487 |  |
| O=C(Nc1ccc(-c2csc(Nc3cccc(C(F)(F)F)c3)n2)cc1)c1cc([N+](=O)[O-])cc(C(F)(F)F)c1 [MLS000911524] | 73 | 100 | 101 | 101 | 101 | -5.387 |  |
| N#Cc1c(N2CCN(c3ccc(F)cc3)CC2)nc(N)c2c(N)nc3c(c12)CC(=O)N3C1CC1 [MLS001003889] | 50 | 101 | 89.7 | 90 | 102 | -6.262 |  |
| N=c1n(CCN2CCCCC2)c2ccccc2n1CC(=O)c1ccc(Cl)c(Cl)c1 [MLS001042209] | 89 | 92 | 87.4 | 87 | 89 | -5.750 |  |
| COc1ccc(NC(=O)CN(C)C(=O)c2ccc(-c3ccccc3Cl)o2)cc1 [MLS001078689] | 111 | 109 | 105 | 105 | 99 | -5.750 |  |
| O=C(Nc1ncccc1O)c1ccc(NS(=O)(=O)c2ccc3[nH]c(=O)[nH]c3c2)cc1 [MLS001138628] | 23 | 59 | 91 | 91 | 105 | -6.437 |  |
| Nc1nonc1-n1nnc(C(=O)N/N=C/c2ccc(F)cc2)c1-c1ccc2c(c1)OCO2 [MLS001142639] | 143 | 115 | 95.3 | 95 | 92 | -6.637 |  |
| Cc1cc(C)c(-c2csc(NC(=O)CCCc3nc4ccccc4c(=O)[nH]3)n2)c(C)c1 [MLS001156669] | 12 | 72 | 103 | 103 | 99 | -5.900 |  |
| CCSc1nc2sc3c(c2c(=O)n1-c1ccccc1)CCN(C(C)C)C3 [MLS001173590] | 63 | 91 | 92.6 | 93 | 100 | -6.000 |  |
| C=C(C)CSc1nc2sc3c(c2c(=O)n1-c1ccc(C)cc1)CCN(C)C3 [MLS001173676] | 59 | 87 | 86.9 | 87 | 97 | -5.800 |  |
| C/C(=N\Nc1ncnc2sc(C)c(C)c12)c1ccccn1 [MLS001176565] | 5.49 | 9 | 40.2 | 40 | 52 | -5.912 |  |
| COc1cc(C)cc(CN2CCC(Cc3ccccc3)CC2)c1O [MLS001178265] | 102 | 89 | 87.6 | 88 | 97 | -6.137 |  |
| CCOc1ccc(-n2c(SCC(=O)OC)nc3sc4c(c3c2=O)CCN(C)C4)cc1 [MLS001213437] | 102 | 88 | 103 | 103 | 112 | -5.950 |  |
